Consider 35 compounds from patent US5688787A, “Substituted β-lactam compounds useful as hypochlesterolemic agents and processes for the preparation thereof” (priority 1996, dated 1997).

Read-outs that look alike come from different tables or passages of the source.

The assay concerns Hyperlipidemic Hamster. Briefly: In Vivo Assay of Hypolipidemic Agents Using the Hyperlipidemic Hamster. Particulars: 7 days, percent change versus control, negative = lowering; for change in vivo at 3 mg/kg / change in vivo at 10 mg/kg / change in vivo at 50 mg/kg / change in vivo at 5 mg/kg: Mesocricetus auratus, po, 168 h; for change in vivo at 3 mg/kg: 3 mg/kg once daily oral; for change in vivo at 10 mg/kg: 10 mg/kg once daily oral; for change in vivo at 5 mg/kg: 5 mg/kg once daily oral. As for the experimental part: In Vivo Assay of Hypolipidemic Agents Using the Hyperlipidemic Hamster
Hamsters are separated into groups of six and given a controlled cholesterol diet (Purina Chow #5001 containing 0.5% cholesterol) for seven days. Diet consumption is monitored to determine dietary cholesterol exposure in the face of test compounds. The animals are dosed with the test compound once daily beginning with the initiation of diet. Dosing is by oral gavage of 0.2mL of corn oil alone (control group) or solution (or suspension) of test compound in corn oil. All animals roodbund or in poor physical condition are euthanized. After seven days, the animals are anesthetized by IM injection of ketamine and sacrificed by decapitation. Blood is collected into vacutainer tubes containing EDTA for plasma lipid analysis and the liver excised for tissue lipid analysis. Data is reported as percent reduction of lipid versus control.
Using the test procedures described above, the following in vitro and in vivo data were obtained for the preferred compounds, which are referred to in the following table by the corresponding example numbers. For the in vitro ACAT data, negative percent inhibition denotes apparent stimulation,while positive numbers denote inhibition. For the in vivo results, data is reported as percent change versus control, therefore, negative numbers indicate a positive lipid-lowering effect.

The mark [1] stands for this setting: read-out: % Reduction (in vivo) Cholest. Esters.
[2] abbreviates: read-out: % Reduction (in vivo) Serum Cholest.
Setting [3] is: 50 mg/kg once daily oral, read-out: % Reduction (in vivo) Cholest. Esters.
Where [4] appears, read: 50 mg/kg once daily oral, read-out: % Reduction (in vivo) Serum Cholest.

For the compound `CCOc1ccc([C@@H]2[C@@H](CCCc3ccccc3)C(=O)N2c2ccccc2)cc1` (relative stereo) [Example 7Y], the change in vivo at 3 mg/kg was -55% under setting [1] and -22% under setting [2]. Further, the change in vivo at 10 mg/kg runs as follows: under setting [1], -79%; under setting [2], -27%. Further, the change in vivo at 50 mg/kg is -94% under setting [3] and -53% under setting [4].
For `COC(=O)C=C(C)N[C@@H]1C(=O)N(c2ccccc2)[C@@H]1c1ccc(OC)cc1` (relative stereo) [Example 7J], the change in vivo at 50 mg/kg reads like this: under setting [3], -27%; under setting [4], -21%.
On the same counts, the results for `COc1ccc([C@@H]2[C@@H](CCCc3ccc(N=[N+]=[N-])cc3)C(=O)N2c2ccc(OC)cc2)cc1` (relative stereo) [Example 33] are 0% and 0%.
On to `CCOC(=O)COc1ccc([C@H]2[C@@H](CCCc3ccccc3)C(=O)N2c2ccc(OC)cc2)cc1` (relative stereo) [Example 35A], for which the change in vivo at 50 mg/kg under setting [3] was -84% and the change in vivo at 50 mg/kg under setting [4] was -34%.
In the case of `CCCOc1ccc([C@@H]2[C@@H](CCCc3ccccc3)C(=O)N2c2ccc(OC)cc2)cc1` (relative stereo) [Example 7P], the change in vivo at 50 mg/kg under setting [3] was -95% and the change in vivo at 50 mg/kg under setting [4] is -40%.
On to `CCOc1ccc(N2C(=O)[C@H](CCCc3ccccc3)[C@H]2c2ccc(OC)cc2)cc1` (relative stereo) [Example 5H], for which the change in vivo at 50 mg/kg runs as follows: under setting [3], -96%; under setting [4], -57%.
For `COc1ccc([C@@H]2[C@@H](CCOc3ccc(F)cc3)C(=O)N2c2ccc(OC)cc2)cc1` (relative stereo) [Example 5AA], the change in vivo at 50 mg/kg under setting [3] is -93% and the change in vivo at 50 mg/kg under setting [4] is -53%.
On the same counts, the results for `COc1ccc([C@@H]2[C@@H](/C=C/Cc3ccccc3)C(=O)N2c2ccc(OC)cc2)cc1` (relative stereo) [Example 7AJ] are -18% and 0%.
In the case of `CCN(CC)c1ccc(N2C(=O)[C@H](CCCc3ccccc3)[C@H]2c2ccc(OC)cc2)cc1` (relative stereo) [Example 7C], the change in vivo at 50 mg/kg is -95% under setting [3] and -51% under setting [4].
For `CON=Cc1ccc([C@H]2[C@H](CCCc3ccccc3)C(=O)N2c2ccc(OC)cc2)cc1` (relative stereo) [Example 27A], the change in vivo at 50 mg/kg is, setting by setting: under setting [3], -42%; under setting [4], -15%.
With `COc1ccc(N2C(=O)[C@@H](CCCc3ccccc3)[C@@H]2c2ccc(SC)cc2)cc1` (relative stereo) [Example 1CM], the change in vivo at 50 mg/kg is 0% under setting [3] and 0% under setting [4].
Consider `COc1ccc(N2C(=O)[C@H](CCCc3ccccc3)[C@@H]2c2ccc(N(S(C)(=O)=O)S(C)(=O)=O)cc2)cc1` (relative stereo) [Example 25B], for which the change in vivo at 50 mg/kg by setting is: under setting [3], 0%; under setting [4], 0%.
With `COc1ccc(N2C(=O)[C@@H](CCCc3ccccc3)[C@@H]2c2ccc(NS(C)(=O)=O)cc2)cc1` (relative stereo) [Example 25C], the change in vivo at 50 mg/kg runs as follows: under setting [3], -46%; under setting [4], -8%.
With `COc1ccc([C@@H]2[C@@H](CCCc3ccccc3)C(=O)N2c2ccc(OC(F)(F)F)cc2)cc1` (relative stereo) [Example 1AN], the change in vivo at 50 mg/kg under setting [3] was -85% and the change in vivo at 50 mg/kg under setting [4] was -34%.
For the compound `COc1ccc(N2C(=O)[C@H](CCCc3ccccc3)[C@@H]2c2ccc(OC)c(C)c2)cc1` (relative stereo) [Example 1BA], the change in vivo at 50 mg/kg runs as follows: under setting [3], 0%; under setting [4], 0%.
As to `COc1ccc(N2C(=O)[C@H](CCCc3ccccc3)[C@@H]2c2ccc(C(=O)O)cc2)cc1` (relative stereo) [Example 22A], the change in vivo at 50 mg/kg under setting [3] is -22% and the change in vivo at 50 mg/kg under setting [4] is -16%.
`COc1ccc([C@@H]2[C@@H](OCCc3ccccc3)C(=O)N2c2ccc(OC)cc2)cc1` (relative stereo) [Example 5Z]: the change in vivo at 50 mg/kg runs as follows: under setting [3], 0%; under setting [4], -16%.
`CCOC(=O)c1ccc([C@H]2[C@@H](CCCc3ccccc3)C(=O)N2c2ccc(OC)cc2)cc1` (relative stereo) [Example 24]: the change in vivo at 50 mg/kg under setting [3] was determined as 0% and the change in vivo at 50 mg/kg under setting [4] was -17%.
As for `COc1ccc(N2C(=O)[C@@H](CCCc3ccccc3)[C@@H]2c2ccc(C(=O)O)cc2)cc1` (relative stereo) [Example 22], the change in vivo at 50 mg/kg is, setting by setting: under setting [3], -33%; under setting [4], -17%.
As for `COc1ccc(C(=O)[C@@H]2[C@@H](CCCc3ccccc3)C(=O)N2c2ccc(OC)cc2)cc1` (relative stereo) [Example 7V], the change in vivo at 50 mg/kg by setting is: under setting [3], 0%; under setting [4], 0%.
Regarding `COc1ccc([C@@H]2[C@H](Oc3ccc4ccccc4c3)C(=O)N2c2ccc(OC)cc2)cc1` (relative stereo) [Example 7AL], the change in vivo at 50 mg/kg was 0% under setting [3] and -13% under setting [4].
On to `COc1ccc([C@@H]2[C@@H](CCCc3ccccc3)C(=O)N2c2ccc(OC)cc2)cc1` (relative stereo) [Example 5W], for which, under “50 mg/kg once daily oral”, the “% Reduction (in vivo) Cholest. Esters” value is reported as -19% and the “% Reduction (in vivo) Serum Cholest.” value is on record as 0%.
Take `COc1ccc(N2C(=O)[C@H](CCCc3ccccc3)[C@@H]2c2ccc(C3OCCO3)cc2)cc1` (relative stereo) [Example 31]: the change in vivo at 50 mg/kg is -52% under setting [3] and -19% under setting [4].
Turning to `COc1ccc([C@@H]2[C@@H](CCCc3ccc(N)cc3)C(=O)N2c2ccc(OC)cc2)cc1` (relative stereo) [Example 8E], the change in vivo at 50 mg/kg under setting [3] is -32% and the change in vivo at 50 mg/kg under setting [4] came out at 0%.
Take `COc1ccc(N2C(=O)[C@H](CCCc3ccccc3)[C@H]2c2ccc(OC(C)C)cc2)cc1` (relative stereo) [Example 7M]: the change in vivo at 50 mg/kg reads like this: under setting [3], -94%; under setting [4], -38%.
`CCOC(=O)c1ccc(N2C(=O)[C@H](CCCc3ccccc3)[C@H]2c2ccc(OC)cc2)cc1` (relative stereo) [Example 7A]: the change in vivo at 50 mg/kg is, setting by setting: under setting [3], -54%; under setting [4], -22%.
Regarding `COc1ccc(N2C(=O)[C@H](CCCc3ccccc3)[C@@H]2c2ccc(C(=O)N3CCOCC3)cc2)cc1` (relative stereo) [Example 23], the change in vivo at 50 mg/kg under setting [3] is -40% and the change in vivo at 50 mg/kg under setting [4] is -22%.
For the compound `CCCOc1ccc([C@H]2[C@@H](CCCc3ccccc3)C(=O)N2c2ccc(OC)cc2)cc1` (relative stereo) [Example 1AZ], the change in vivo at 50 mg/kg was -91% under setting [3] and -37% under setting [4].
Regarding `COc1ccc([C@H]2[C@@H](CCCc3ccccc3)C(=O)N2c2ccc(Oc3ccccc3)cc2)cc1` (relative stereo) [Example 1AQ], the change in vivo at 50 mg/kg reads like this: under setting [3], -22%; under setting [4], -20%.
With `COc1ccc([C@@H]2[C@H](CCCc3ccccc3)C(=O)N2c2ccc(OC)cc2)cc1` [Example 2], under setting [1], the change in vivo at 5 mg/kg is -37% and the change in vivo at 10 mg/kg is -69%. Moreover, under setting [2], the change in vivo at 5 mg/kg is -15% and the change in vivo at 10 mg/kg is -28%.
Consider `COc1ccc(N2C(=O)[C@H](CCCc3ccccc3)[C@@H]2c2cc(OC)c(OC)c(OC)c2)cc1` (relative stereo) [Example 1BV], for which the change in vivo at 50 mg/kg was 0% under setting [3] and -11% under setting [4].
For the compound `CCOC(=O)[C@@H]1[C@H](CCCc2ccccc2)C(=O)N1c1ccc(OC)cc1` (relative stereo) [Example 7N], the change in vivo at 50 mg/kg was 0% under setting [3] and -11% under setting [4].
In the case of `COc1ccc([C@@H]2[C@@H](CCCC3CCCCC3)C(=O)N2c2ccc(OC)cc2)cc1` (relative stereo) [Example 7AK], the change in vivo at 50 mg/kg runs as follows: under setting [3], -28%; under setting [4], 12%.
On the same counts, the results for `COc1ccc([C@@H]2[C@H](NCCCC3CCCCC3)C(=O)N2c2ccccc2)cc1` (relative stereo) [Example 14C] are 0% and 0%.
For `COc1ccc([C@@H]2[C@@H](CCCc3ccccc3)C(=O)N2c2cnc3ccccc3c2)cc1` (relative stereo) [Example 7AT], the change in vivo at 50 mg/kg is -32% under setting [3] and -10% under setting [4].
